Test [1] deals with T1, GR (Rattus norvegicus, UniProt P06536).
T1 construct: expressed in transfected cells; host or cells: U2OS-GR
T1 sequence (P06536 1-795): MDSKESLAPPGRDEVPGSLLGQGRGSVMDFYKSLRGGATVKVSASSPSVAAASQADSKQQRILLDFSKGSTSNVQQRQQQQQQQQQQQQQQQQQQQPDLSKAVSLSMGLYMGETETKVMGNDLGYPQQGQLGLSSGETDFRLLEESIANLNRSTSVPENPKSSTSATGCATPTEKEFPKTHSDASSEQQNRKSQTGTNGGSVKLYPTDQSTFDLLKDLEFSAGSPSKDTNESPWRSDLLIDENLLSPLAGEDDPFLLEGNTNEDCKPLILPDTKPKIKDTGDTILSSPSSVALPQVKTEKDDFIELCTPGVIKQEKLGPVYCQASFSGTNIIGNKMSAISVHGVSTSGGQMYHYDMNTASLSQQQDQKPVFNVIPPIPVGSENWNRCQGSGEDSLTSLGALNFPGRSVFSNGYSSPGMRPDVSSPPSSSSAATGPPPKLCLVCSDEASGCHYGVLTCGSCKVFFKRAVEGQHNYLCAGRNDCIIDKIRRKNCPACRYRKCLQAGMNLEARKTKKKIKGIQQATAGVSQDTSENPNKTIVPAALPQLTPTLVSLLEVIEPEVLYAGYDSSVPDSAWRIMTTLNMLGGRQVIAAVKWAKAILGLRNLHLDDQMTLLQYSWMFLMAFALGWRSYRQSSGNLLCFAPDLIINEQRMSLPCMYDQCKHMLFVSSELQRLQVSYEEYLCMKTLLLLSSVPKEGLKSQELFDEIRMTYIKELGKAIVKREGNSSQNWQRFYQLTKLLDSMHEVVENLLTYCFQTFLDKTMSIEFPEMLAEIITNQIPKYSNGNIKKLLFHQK
The test can be described thus: Luciferase assays, GR-responsive reporters, U2OS-GR cells. It is filed as cell-based. The conditions noted are these: pENaC-luc and pSV40-rl, with dex. As to the method: (§1) Transfections. The day prior to transfection, ˜3×10^5 cells were plated in 6-well dishes. Transfections used Lipofectamine 2000 (Invitrogen). 4 μg of total plasmid DNA were used for each transfection. For A549 cells, 500 μL of DNA/lipofectamine complex was added to 1.5 ml of DMEM with pen/strep and 5% FBS. For U2OS cells, 500 μl of DNA/lipofectamine complex was added to 1.5 ml of Optimem. After 3-4 hours of incubation, media was replaced with standard growth media.
(§2) Luciferase assays. Luciferase assays used the Promega Dual-Luciferase Reporter system. Briefly, cells were transfected with various firefly luciferase plasmids and pSV40-RL at a ratio of 10:1. The day after transfection, cells were split into 96-well dishes and treated with dex and various drugs. Cells were harvested in 50 μl 1XPLB (Promega) 12-18 hr after drug treatment and luciferase assays were performed on 10 μl of lysate. Luminscence was detected using an Ultra Evolution plate reader (Tecan).

Test [2] deals with genes that are regulated by glucocorticoids. The test can be described thus: In vivo screening: qPCR of glucocorticoid-regulated genes in mouse tissues. Particulars: mice, 7.5 mg/kg aclacinomycin, one hour later 2.5 mg/kg dexamethasone, tissues after 6 hours. The protocol:
Mice were injected with 7.5 mg/kg aclacinomycin. One hour later, mice were injected with 2.5 mg/kg dexamethasone. After 6 hours, lungs, liver, heart and skeletal muscle were harvested for RNA preparation. qPCR was performed on isolated RNA from these tissues to analyze expression levels of various genes that are regulated by glucocorticoids.
(Real-time PCR tracks product formation cycle by cycle.)

For test [3], the target named is T2, GR (Homo sapiens, UniProt P04150).
T2 sequence (P04150 1-777): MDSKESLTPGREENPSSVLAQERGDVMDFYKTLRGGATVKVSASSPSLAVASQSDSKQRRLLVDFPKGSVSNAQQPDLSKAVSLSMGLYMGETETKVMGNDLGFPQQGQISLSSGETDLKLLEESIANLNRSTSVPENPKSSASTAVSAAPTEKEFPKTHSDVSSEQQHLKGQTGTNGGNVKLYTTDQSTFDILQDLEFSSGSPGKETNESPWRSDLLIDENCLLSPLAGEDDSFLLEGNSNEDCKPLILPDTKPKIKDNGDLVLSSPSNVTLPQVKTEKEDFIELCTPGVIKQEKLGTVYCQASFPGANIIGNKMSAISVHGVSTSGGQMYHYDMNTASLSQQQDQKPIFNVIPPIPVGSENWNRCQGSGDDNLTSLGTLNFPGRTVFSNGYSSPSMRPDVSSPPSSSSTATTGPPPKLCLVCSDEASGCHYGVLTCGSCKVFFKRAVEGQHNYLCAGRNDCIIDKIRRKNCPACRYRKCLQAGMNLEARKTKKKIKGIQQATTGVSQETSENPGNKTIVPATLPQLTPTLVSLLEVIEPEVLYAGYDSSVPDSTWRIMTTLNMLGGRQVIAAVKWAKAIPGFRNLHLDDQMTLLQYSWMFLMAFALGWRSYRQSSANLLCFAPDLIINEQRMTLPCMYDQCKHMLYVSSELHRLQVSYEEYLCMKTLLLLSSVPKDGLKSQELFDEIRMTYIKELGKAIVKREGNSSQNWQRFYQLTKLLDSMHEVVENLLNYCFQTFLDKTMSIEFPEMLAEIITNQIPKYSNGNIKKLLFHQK
The test can be described thus: Multi-promoter fluorescent protein reporter compound screen for GR modulators. It counts as cell-based. Further details: endogenous in cells; host or cells: A549. Particulars: A549 cells, library compounds 2.5 μM with dex 100 nM; reporter fluorescence relative to plate mean. As to the method: Compound Screen. A549 cells were transfected with an equal mixture of pENaC-CFP, pGILZ-YFP, pFKBP5-OFP (1.3 μg each), or with pSV40-ChFP (4 μg). The next day, cells were mixed (˜1.8×10^4 of the cells triple-transfected with pENaC-CFP, pGILZ-YFP, pFKBP5-OFP; ˜2×10^3 cells transfected with pSV40-ChFP) and replated into 96 well plates (Costar 3603). 2 hours later, library compounds (2.5 μM) and dex (100 nM) were added using a Biomek robot. The following day, cells were fixed for 4 minutes in 4% paraformaldehyde and fluorescence was measured sequentially for each reporter using a Safire plate reader (Tecan). Hits were scored based on the mean and standard deviation (s.d.) of the experimental wells on each plate. Criteria for a hit were if one reporter was more than 1.5×s.d. from the mean in duplicate, or if two reporters were more than 0.8×s.d. from the mean in duplicate. If the control SV40-ChFP was more than 2×s.d. from the mean in a single plate, or 0.8×s.d. in duplicate plates (in the same direction as the GR reporters), the well was not scored as a hit.
We used the system of Example 1 to screen a library of 1040 natural products and FDA-approved drugs for modulators of GR signaling (Abbott, A. Nature 417:109). The screen design is outlined in FIG. 2. The pENaC-CFP, pGILZ-YFP, and pFKBP5-OFP reporters indicated GR signaling, while pSV40-mCh, an internal control, excluded non-specific transcription inhibitors and toxins. We screened the library in duplicate in the presence of saturating dex (100 nM). Z′, a function that reflects the ability to discriminate between control and experimental wells (Zhang, J. H. et al., J Biomol Screen 4:67-73 (1999)), was determined for dex treatment of each GR reporter. The Z′ values were: Z′(ENAC-CFP)=0.68; Z′(GILZ-YFP)=0.64; and Z′(FKBP5-OFP)=0.66. These indicate that the screen should efficiently identify compounds that increase or decrease fluorescence from any of the three experimental promoters (Zhang, J. H. et al., J Biomol Screen 4:67-73 (1999)).

For test [4], the target named is T2, GR. As to the kind of experiment: Luciferase assays, GR-responsive reporters, A549 cells. It is filed as cell-based. Further details: endogenous in cells; host or cells: A549. The conditions noted are these: for GR activity (GR-mediated induction of pENaC-luc reporter): pENaC-luc and pSV40-rl; for Dose dependent: whether the drug acted dose-dependently on GR-luciferase reporters. As to the method: as §1, §2
(A reporter such as luciferase makes a cellular process visible.)

Test [5] addresses T2, GR. As to the kind of experiment: qPCR of endogenous GR target genes, A549 cells. It counts as cell-based. Further details: endogenous in cells; host or cells: A549. Particulars: with dex, RPL19 reference. The text has this: (§3) Quantitative PCR. Total RNA isolation used Trizol and Pure Link (Invitrogen). […] Rpl19 expression was used for data normalization.
Test [6] relates to GR. As to the kind of experiment: qPCR of endogenous GR target genes, cell line not distinguished (FIG. 4B, 5D). It is filed as cell-based. The conditions noted are these: with dex, 24 hr.
From the text: as §3

The next test has as its target androgen receptor (AR) (Homo sapiens, UniProt P10275). The conditions noted are these: Hieronymus et al., Cancer Cell 10:321-330 (2006); cited from earlier work.
The test system of a further test is RNA synthesis. The conditions noted are these: Long et al., Mol Pharmacol 22:152-7 (1982); cited from earlier work.

Chain of androgen receptor (AR) (P10275 whole entry, species assumed): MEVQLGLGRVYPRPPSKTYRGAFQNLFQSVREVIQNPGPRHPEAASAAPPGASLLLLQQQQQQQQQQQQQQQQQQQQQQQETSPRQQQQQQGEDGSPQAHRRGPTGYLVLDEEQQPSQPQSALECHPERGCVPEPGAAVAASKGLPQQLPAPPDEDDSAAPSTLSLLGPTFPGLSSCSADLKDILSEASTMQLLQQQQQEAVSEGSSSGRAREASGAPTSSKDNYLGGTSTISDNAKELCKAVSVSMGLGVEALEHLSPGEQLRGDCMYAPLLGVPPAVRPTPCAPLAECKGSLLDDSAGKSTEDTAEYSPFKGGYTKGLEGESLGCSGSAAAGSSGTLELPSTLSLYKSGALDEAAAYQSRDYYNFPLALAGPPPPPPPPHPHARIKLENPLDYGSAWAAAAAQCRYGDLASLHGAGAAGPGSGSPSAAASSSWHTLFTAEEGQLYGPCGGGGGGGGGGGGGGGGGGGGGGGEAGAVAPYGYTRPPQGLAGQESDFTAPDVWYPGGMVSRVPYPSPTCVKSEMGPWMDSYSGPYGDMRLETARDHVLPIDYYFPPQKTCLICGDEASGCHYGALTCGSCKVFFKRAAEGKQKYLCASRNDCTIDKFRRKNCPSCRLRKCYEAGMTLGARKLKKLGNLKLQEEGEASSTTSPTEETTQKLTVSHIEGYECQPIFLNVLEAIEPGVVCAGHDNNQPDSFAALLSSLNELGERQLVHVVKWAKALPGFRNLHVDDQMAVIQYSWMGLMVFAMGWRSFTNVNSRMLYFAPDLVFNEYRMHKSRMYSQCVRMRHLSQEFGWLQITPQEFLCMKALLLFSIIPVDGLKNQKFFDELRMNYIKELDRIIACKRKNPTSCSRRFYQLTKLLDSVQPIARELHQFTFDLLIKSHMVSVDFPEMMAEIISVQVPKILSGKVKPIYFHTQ

For `CC[C@@]1(O)C[C@H](O[C@H]2C[C@H](N(C)C)[C@H](O[C@H]3C[C@H](O)[C@H](O[C@H]4CCC(=O)[C@H](C)O4)[C@H](C)O3)[C@H](C)O2)c2c(cc3c(c2O)C(=O)c2c(O)cccc2C3=O)[C@H]1C(=O)OC` [Aclacinomycin], the “GR activity (luciferase reporter)” value at GR [1] was “inhibited GR”. In addition, the “activation of FKBP5 by dexamethasone” value in test [2] (liver and lung (FIGS. 6-7)) is given as “blocked the activation”. Moreover, in test [2] (lung (FIG. 8)), the “activation of KLF15 by dexamethasone” value was “blocked the activation”. Moreover, in test [2] (lung (FIG. 9)), the “repression of the cytokine CCL2 by dexamethasone” value was “did not inhibit repression”. For the same compound, at GR [3], the ENaC-CFP entry was “↓↓↓^b (more than 2 standard deviations (s.d.) less than the mean (↓↓↓))”, the FKBP5-OFP result is “↓↓↓ (more than 2 standard deviations (s.d.) less than the mean (↓↓↓))” and the GILZ-YFP entry is reported as “↓↓↓ (more than 2 standard deviations (s.d.) less than the mean (↓↓↓))”. Besides, the pSV40-luc activity result on GR [4] (A549 cells, low doses of Acl, dex-unresponsive reporter) is given as “Increases”. Moreover, on GR [4] (A549 cells, with dex), the “GR activity (GR-mediated induction of pENaC-luc reporter)” value was “antagonists of GR” and the “effect on GR-dependent reporter pENaC-luc compared with GR-independent constitutive reporter pSV40-rl” value is “reduced GR activation of pENaC-luc much more than the constitutive reporter”. Besides, the Dose dependent entry on GR [4] is on record as “yes”. The “expression of endogenous GR target genes (relative mRNA, qPCR)” value at GR [5] was “inhibited GR at the tested promoters”.
Take `CC[C@@]1(O)C[C@H](O[C@H]2C[C@H](N(C)C)[C@H](O[C@H]3C[C@@H]4O[C@H]5CC(=O)[C@H](C)O[C@H]5O[C@@H]4[C@H](C)O3)[C@H](C)O2)c2c(cc3c(c2O)C(=O)c2c(O)ccc(O)c2C3=O)[C@H]1C(=O)OC` [Cin B, Cinerubin (Cin) B]: on GR [4] (A549 cells, with dex), the “GR activity (GR-mediated induction of pENaC-luc reporter)” value is “potently inhibited GR activity”. Besides, the “expression of endogenous GR target genes (relative mRNA, qPCR)” value on GR [5] is “inhibited GR at the tested promoters”.
With `N=C1C=CC(=C(c2ccc(N)cc2)c2ccc(N)cc2)C=C1` [Pararosaniline], in the test on GR [6], the “expression of endogenous GR target genes (qPCR), overall” value is recorded as “selectively modulated endogenous GR target genes” and the “induction of endogenous ENaC (qPCR)” value was “selectively inhibited the induction of endogenous ENaC transcription in comparison to FKBP5”. Moreover, the “androgen receptor (AR) signaling” value on androgen receptor (AR) is listed as “inhibit”. For the same compound, at GR [3], the ENaC-CFP result is “↓ (0.8 to 2 s.d. less than the mean (↓))”, the FKBP5-OFP result is “No effect” and the GILZ-YFP entry was “↓ (0.8 to 2 s.d. less than the mean (↓))”. Besides, at GR [4], the Dose dependent entry was “yes”. The Dose dependent result at GR [4] (listed as pararosaniline) was “dose dependent effects”.
`CC[C@@]1(O)C[C@H](O[C@H]2C[C@H](N(C)C)[C@H](O[C@H]3C[C@H](O)[C@H](O[C@H]4C[C@H](O)[C@H](O)[C@H](C)O4)[C@H](C)O3)[C@H](C)O2)c2c(cc3c(c2O)C(=O)c2c(O)ccc(O)c2C3=O)[C@H]1C(=O)OC` [marcellomycin]: the “IC50 for inhibition of RNA synthesis, compared with aclacinomycin” value in the test on RNA synthesis was “similar”. For the same compound, on GR [4] (A549 cells, with dex), the “GR activity (GR-mediated induction of pENaC-luc reporter)” value is recorded as “no impact on GR-mediated induction of the reporter”.

(Values after patent publication US8940705B2, “Method of treating disease and selectively modulating transcriptional regulation by a glucocorticoid receptor by administering aclacinomycin and dexamethasone” (The Regents of the University of California, priority 2009, dated 2015).)
